Test results taken from patent US9796711B2, “Substituted pyrazolo[3,4-b]pyridin-6-carboxylic acids and method of use” (AbbVie S.àr.l., priority 2015, dated 2017).

Molecular target: T1, ΔF508-CFTR (Homo sapiens, UniProt P13569, DEL508-508)
T1 construct: host or cells: CFBE41o-, doxycycline-inducible
Experiment: CFTR cell surface levels using HRP-tagged ΔF508-CFTR expressing CFBE cells, in the presence of a co-corrector
Assay type: cell-based
Conditions: HRP-tagged ΔF508-CFTR expressing CFBE cells, in the presence of 3 μM co-corrector; for EC50: read-out: EC50
Outline: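 Cells were seeded with 0.5 μg/mL doxycycline and held 68 h at 37 °C. Test compounds plus 3 μM co-corrector (final 0.1% DMSO) were then added for 20 h at 33 °C. Washed cells received HRP substrate, and luminescence was normalized between DMSO and 3 μM co-corrector controls.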

T1 sequence (P13569 with tags, fused parts or gaps DEL508-508): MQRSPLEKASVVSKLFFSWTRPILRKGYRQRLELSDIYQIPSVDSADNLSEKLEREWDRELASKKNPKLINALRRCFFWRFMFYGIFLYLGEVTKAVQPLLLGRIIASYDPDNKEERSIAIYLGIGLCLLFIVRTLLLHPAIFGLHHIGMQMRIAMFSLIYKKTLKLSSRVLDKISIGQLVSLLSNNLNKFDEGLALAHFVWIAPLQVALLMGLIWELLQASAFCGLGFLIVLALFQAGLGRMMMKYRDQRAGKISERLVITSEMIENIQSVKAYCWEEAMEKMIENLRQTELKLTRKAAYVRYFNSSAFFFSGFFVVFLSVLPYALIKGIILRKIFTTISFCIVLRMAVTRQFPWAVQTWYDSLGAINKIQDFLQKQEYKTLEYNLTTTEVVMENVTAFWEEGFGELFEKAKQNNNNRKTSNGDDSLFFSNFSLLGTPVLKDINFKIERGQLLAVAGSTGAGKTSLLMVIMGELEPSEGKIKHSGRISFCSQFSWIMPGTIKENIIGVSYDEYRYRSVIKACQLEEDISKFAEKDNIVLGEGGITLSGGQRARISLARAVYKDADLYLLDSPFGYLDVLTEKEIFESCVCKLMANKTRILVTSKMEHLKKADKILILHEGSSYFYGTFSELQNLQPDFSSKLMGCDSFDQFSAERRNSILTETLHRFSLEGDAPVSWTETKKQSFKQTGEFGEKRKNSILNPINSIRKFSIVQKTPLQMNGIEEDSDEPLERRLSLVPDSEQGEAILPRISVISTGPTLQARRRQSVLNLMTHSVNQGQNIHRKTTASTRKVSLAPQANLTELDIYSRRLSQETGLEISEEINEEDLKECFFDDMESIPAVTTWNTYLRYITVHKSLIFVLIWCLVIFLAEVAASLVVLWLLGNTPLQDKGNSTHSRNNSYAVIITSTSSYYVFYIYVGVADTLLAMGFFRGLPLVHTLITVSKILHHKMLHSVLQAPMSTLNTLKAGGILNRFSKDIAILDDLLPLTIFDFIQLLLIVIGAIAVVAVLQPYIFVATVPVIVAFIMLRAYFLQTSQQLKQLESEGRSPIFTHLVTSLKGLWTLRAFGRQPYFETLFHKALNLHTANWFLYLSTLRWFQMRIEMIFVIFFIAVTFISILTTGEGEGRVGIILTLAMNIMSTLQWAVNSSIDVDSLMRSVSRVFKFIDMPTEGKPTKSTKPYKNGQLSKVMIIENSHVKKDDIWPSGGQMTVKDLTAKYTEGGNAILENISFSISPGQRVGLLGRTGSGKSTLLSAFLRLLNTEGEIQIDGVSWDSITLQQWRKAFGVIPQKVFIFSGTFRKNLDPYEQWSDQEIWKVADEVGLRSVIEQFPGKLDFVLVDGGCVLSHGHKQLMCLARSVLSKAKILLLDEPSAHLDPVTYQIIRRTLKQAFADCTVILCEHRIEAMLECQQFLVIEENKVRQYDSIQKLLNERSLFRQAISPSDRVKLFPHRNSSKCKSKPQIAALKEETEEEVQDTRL

Row | Structure (SMILES) | % Activation [%] | EC50 [nM]
1 | CNC(=O)CN1CCN(c2cc(C(=O)O)nc3c2c(C2CCC2)nn3-c2ccccc2)CC1 [compound 569, 3-cyclobutyl-4-{4-[2-(methylamino)-2-oxoethyl]piperazin-1-yl}-1-phenyl-1H-pyrazolo[3,4-b]pyridine-6-carboxylic acid] | 259.37 | 3060
2 | Cc1nn(-c2ccccc2)c2nc(C(=O)O)cc(-c3ccc(N4CCC(O)CC4)cc3)c12 [compound 144, 4-[4-(4-hydroxypiperidin-1-yl)phenyl]-3-methyl-1-phenyl-1H-pyrazolo[3,4-b]pyridine-6-carboxylic acid] | 338.4 | 2620
3 | O=C(O)c1cc(N2CCC[C@@H](N3CCCC3=O)C2)c2c(C3CCC3)nn(-c3ccccc3)c2n1 [compound 697, 3-cyclobutyl-4-[(3R)-3-(2-oxopyrrolidin-1-yl)piperidin-1-yl]-1-phenyl-1H-pyrazolo[3,4-b]pyridine-6-carboxylic acid] | 217.3 | 1270
4 | CC(C)c1nn(-c2ccc(F)cc2)c2nc(C(=O)O)cc(N3CCC(CCCN4CCCC4)CC3)c12 [compound 749, 1-(4-fluorophenyl)-3-(propan-2-yl)-4-{4-[3-(pyrrolidin-1-yl)propyl]piperidin-1-yl}-1H-pyrazolo[3,4-b]pyridine-6-carboxylic acid] | 387 | 277
5 | CN(C)[C@H]1CCN(c2cc(C(=O)O)nc3c2c(C2CCC2)nn3-c2ccccc2)C1 [compound 568, 3-cyclobutyl-4-[(3S)-3-(dimethylamino)pyrrolidin-1-yl]-1-phenyl-1H-pyrazolo[3,4-b]pyridine-6-carboxylic acid] | 279.9 | 2480
6 | CN(C)C(=O)N1CCN(c2cc(C(=O)O)nc3c2c(C2CCC2)nn3-c2ccccc2)CC1 [compound 708, 3-cyclobutyl-4-[4-(dimethylcarbamoyl)piperazin-1-yl]-1-phenyl-1H-pyrazolo[3,4-b]pyridine-6-carboxylic acid] | 314.8 | 147
7 | CC1(N2CCCCC2)CCN(c2cc(C(=O)O)nc3c2c(C2CCC2)nn3-c2ccccc2)CC1 [compound 698, 3-cyclobutyl-4-(4′-methyl [1,4′-bipiperidin]-1′-yl)-1-phenyl-1H-pyrazolo[3,4-b]pyridine-6-carboxylic acid] | 242.7 | 745
8 | Cc1nn(-c2ccccc2)c2nc(C(=O)O)cc(-c3ccc(N4CCOCC4)cc3)c12 [compound 1, 3-methyl-4-[4-(morpholin-4-yl)phenyl]-1-phenyl-1H-pyrazolo[3,4-b]pyridine-6-carboxylic acid] | 354.48 | 1040
9 | CC(=O)N1CCN(c2cc(C(=O)O)nc3c2c(C2CCC2)nn3-c2ccccc2)CC1 [compound 703, 4-(4-acetylpiperazin-1-yl)-3-cyclobutyl-1-phenyl-1H-pyrazolo[3,4-b]pyridine-6-carboxylic acid] | 374.6 | 386
10 | CN1CCOC(C2CN(c3cc(C(=O)O)nc4c3c(C3CCC3)nn4-c3ccccc3)C2)C1 (centres unmarked) [compound 723, 3-cyclobutyl-4-[3-(4-methylmorpholin-2-yl)azetidin-1-yl]-1-phenyl-1H-pyrazolo[3,4-b]pyridine-6-carboxylic acid] | 344.8 | 1050
11 | CC(C)c1nn(-c2ccc(F)cc2)c2nc(C(=O)O)cc(OCCCN3CCCCC3)c12 [compound 653, 1-(4-fluorophenyl)-4-[3-(piperidin-1-yl)propoxy]-3-(propan-2-yl)-1H-pyrazolo[3,4-b]pyridine-6-carboxylic acid] | 260.3 | 3330
12 | CN(C1CCN(C2CN(c3cc(C(=O)O)nc4c3c(C3CCC3)nn4-c3ccccc3)C2)CC1)C1COC1 [compound 724, 3-cyclobutyl-4-(3-{4-[methyl(oxetan-3-yl)amino]piperidin-1-yl}azetidin-1-yl)-1-phenyl-1H-pyrazolo[3,4-b]pyridine-6-carboxylic acid] | 208.5 | 1670
13 | O=C(O)c1cc(-c2ccc(CN3CCOCC3)cc2)c2c(OC3CCC3)nn(C3CCCCC3)c2n1 [compound 808, 3-(cyclobutyloxy)-1-cyclohexyl-4-{4-[(morpholin-4-yl)methyl]phenyl}-1H-pyrazolo[3,4-b]pyridine-6-carboxylic acid] | 297 | 264
14 | CC(C)c1nn(-c2ccc(F)cc2)c2nc(C(=O)O)cc(N3CC(C4CN(C)CCO4)C3)c12 (centres unmarked) [compound 740, 1-(4-fluorophenyl)-4-[3-(4-methylmorpholin-2-yl)azetidin-1-yl]-3-(propan-2-yl)-1H-pyrazolo[3,4-b]pyridine-6-carboxylic acid] | 194.7 | 424
15 | CN(C)C(=O)CN1CCN(c2cc(C(=O)O)nc3c2c(C2CCC2)nn3-c2ccccc2)CC1 [compound 559, 3-cyclobutyl-4-{4-[2-(dimethylamino)-2-oxoethyl]piperazin-1-yl}-1-phenyl-1H-pyrazolo[3,4-b]pyridine-6-carboxylic acid] | 352.47 | 2050
16 | CC(C)c1nn(-c2ccc(F)cc2)c2nc(C(=O)O)cc(N3CCC(OCCN4CCCCC4)CC3)c12 [compound 762, 1-(4-fluorophenyl)-4-{4-[2-(piperidin-1-yl)ethoxy]piperidin-1-yl}-3-(propan-2-yl)-1H-pyrazolo[3,4-b]pyridine-6-carboxylic acid] | 442.6 | 462
17 | CC(O)CN1CCC(N2CCN(c3cc(C(=O)O)nc4c3c(C3CCC3)nn4-c3ccccc3)CC2)CC1 (centres unmarked) [compound 727, 3-cyclobutyl-4-{4-[1-(2-hydroxypropyl)piperidin-4-yl]piperazin-1-yl}-1-phenyl-1H-pyrazolo[3,4-b]pyridine-6-carboxylic acid] | 348 | 1670
18 | N#CC1COC2(C1)CN(c1cc(C(=O)O)nc3c1c(C1CCC1)nn3-c1ccccc1)C2 (centres unmarked) [compound 716, 4-(7-cyano-5-oxa-2-azaspiro[3.4]octan-2-yl)-3-cyclobutyl-1-phenyl-1H-pyrazolo[3,4-b]pyridine-6-carboxylic acid] | 282.9 | 772
19 | CN(C)C(=O)C1(N2CCCC2=O)CCN(c2cc(C(=O)O)nc3c2c(C2CCC2)nn3-c2ccccc2)CC1 [compound 718, 3-cyclobutyl-4-[4-(dimethylcarbamoyl)-4-(2-oxopyrrolidin-1-yl)piperidin-1-yl]-1-phenyl-1H-pyrazolo[3,4-b]pyridine-6-carboxylic acid] | 209.8 | 1670
20 | CCN(C1CCN(c2cc(C(=O)O)nc3c2c(C2CCC2)nn3-c2ccccc2)CC1)C1COC1 [compound 734, 3-cyclobutyl-4-{4-[ethyl(oxetan-3-yl)amino]piperidin-1-yl}-1-phenyl-1H-pyrazolo[3,4-b]pyridine-6-carboxylic acid] | 415 | 244
21 | CCN(CC)CCCC1CCN(c2cc(C(=O)O)nc3c2c(C2CCC2)nn3-c2ccccc2)CC1 [compound 731, 3-cyclobutyl-4-{4-[3-(diethylamino)propyl]piperidin-1-yl}-1-phenyl-1H-pyrazolo[3,4-b]pyridine-6-carboxylic acid] | 399.5 | 94.5
22 | CC(C)c1nn(-c2ccc(F)cc2)c2nc(C(=O)O)cc(N3CCC(N4CCN(C5COC5)CC4)CC3)c12 [compound 744, 1-(4-fluorophenyl)-4-{4-[4-(oxetan-3-yl)piperazin-1-yl]piperidin-1-yl}-3-(propan-2-yl)-1H-pyrazolo[3,4-b]pyridine-6-carboxylic acid] | 337.3 | 735
23 | O=C(O)c1cc(N2CCC(CN3CCCC3)CC2)c2c(C3CCC3)nn(-c3ccc(F)cc3)c2n1 [compound 888, 3-cyclobutyl-1-(4-fluorophenyl)-4-{4-[(pyrrolidin-1-yl)methyl]piperidin-1-yl}-1H-pyrazolo[3,4-b]pyridine-6-carboxylic acid] | 430 | 333
24 | O=C(O)c1cc(N2CC[C@@H](N3CCCCC3)C2)c2c(C3CCC3)nn(-c3ccccc3)c2n1 [compound 715, 3-cyclobutyl-1-phenyl-4-[(3R)-3-(piperidin-1-yl)pyrrolidin-1-yl]-1H-pyrazolo[3,4-b]pyridine-6-carboxylic acid] | 261.4 | 1270
25 | O=C(O)c1cc(N2C[C@@H](O)[C@H](O)C2)c2c(C3CCC3)nn(-c3ccccc3)c2n1 [compound 445, 3-cyclobutyl-4-[(3R,4R)-3,4-dihydroxypyrrolidin-1-yl]-1-phenyl-1H-pyrazolo[3,4-b]pyridine-6-carboxylic acid] | 127.85 | > 10000
